Measured values published in patent US6544985B2, “Dihydro-benzo [b][1,4]diazepin-2-one derivatives” (Hoffman-La Roche Inc., priority 2001, dated 2003).

SMILES	melting point
COCCN(C)c1cc2c(cc1Cl)NC(=O)CC(c1cccc(-n3nncc3CO)c1)=N2 [Example 13, 8-Chloro-4-[3-(5-hydroxymethyl-[1,2,3]triazol-1-yl)-phenyl]-7-[(2-methoxy-ethyl)-methyl-amino]-1,3-dihydro-benzo[b][1,4]diazepin-2-one]	185 °C
Cc1cc2c(cc1N(C)C)N=C(c1cccc(C#N)c1)CC(=O)N2 [Example 89, 3-(8-Dimethylamino-7-methyl-4-oxo-4,5-dihydro-3H-benzo[b][1,4]diazepin-2-yl)-benzonitrile]	257 °C
O=C1CC(c2cccc(-c3cc(CO)on3)c2)=Nc2cc(N3CCCC3)c(C(F)(F)F)cc2N1 [Example 60, 4-[3-(5-Hydroxymethyl-isoxazol-3-yl)-phenyl]-7-pyrrolidin-1-yl-8-trifluoromethyl-1,3-dihydro-benzo[b][1,4]diazepin-2-one]	206 to 208 °C
Cc1cc(-c2cccc(C3=Nc4cc(N(C)CC(C)C)c(C#N)cc4NC(=O)C3)c2)on1 [Example 110, 8-(Isobutyl-methyl-amino)-2-[3-(3-methyl-isoxazol-5-yl)-phenyl]-4-oxo-4,5-dihydro-3H-benzo[b][1,4]diazepine-7-carbonitrile]	170 °C
CN(C)c1cc2c(cc1C(F)(F)F)NC(=O)CC(c1cccc(-c3ccnn3CCO)c1)=N2 [Example 81, 7-Dimethylamino-4-{3-[2-(2-hydroxy-ethyl)-2H-pyrazol-3-yl]-phenyl}-8-trifluoromethyl-1,3-dihydro-benzo[b][1,4]diazepin-2-one]	138 °C
N#Cc1cc(C2=Nc3cc(N4CCC4)c(Cl)cc3NC(=O)C2)ccn1 [Example 59, 4-(8-Azetidin-1-yl-7-chloro-4-oxo-4,5-dihydro-3H-benzo[b][1,4]diazepin-2-yl)-pyridine-2-carbonitrile]	276 °C

Further lines, results first:

melting point	SMILES
198 to 200 °C	CN(C)c1cc2c(cc1Cl)NC(=O)CC(c1cccc(-c3nnc(CCO)s3)c1)=N2 [Example 223, 8-Chloro-7-dimethylamino-4-{3-[5-(2-hydroxy-ethyl)-[1,3,4]thiadiazol-2-yl]-phenyl}-1,3-dihydro-benzo[b][1,4]diazepin-2-one]
191 °C	CC(C)NCc1cnnn1-c1cccc(C2=Nc3cc(N(C)C(C)C)c(C(F)(F)F)cc3NC(=O)C2)c1 [Example 155, 4-{3-[5-(Isopropylamino-methyl)-[1,2,3]triazol-1-yl]-phenyl}-7-(isopropyl-methyl-amino)-8-trifluoromethyl-1,3-dihydro-benzo[b][1,4]diazepin-2-one]
226 to 227 °C	Cc1nc(-c2cccc(C3=Nc4cc(N(C)C)c(C(F)(F)F)cc4NC(=O)C3)c2)c(CO)s1 [Example 218, 7-Dimethylamino-4-[3-(5-hydroxymethyl-2-methyl-thiazol-4-yl)-phenyl]-8-trifluoromethyl-1,3-dihydro-benzo[b][1,4]diazepin-2-one]
143 to 145 °C	CC(C)N(C)c1cc2c(cc1Cl)NC(=O)CC(c1cccc(-c3nc(CO)co3)c1)=N2 [Example 189, 8-Chloro-4-[3-(4-hydroxymethyl-oxazol-2-yl)-phenyl]-7-(isopropyl-methyl-amino)-1,3-dihydro-benzo[b][1,4]diazepin-2-one]
172 °C	CC(C)N(C)c1cc2c(cc1Cl)NC(=O)CC(c1cccc(-n3nncc3CN3CCCC3)c1)=N2 [Example 125, 8-Chloro-7-(isopropyl-methyl-amino)-4-[3-(5-pyrrolidin-1-ylmethyl-[1,2,3]triazol-1-yl)-phenyl]-1,3-dihydro-benzo[b][1,4]diazepin-2-one]
174 °C	CC(C)CN(C)c1cc2c(cc1C#N)NC(=O)CC(c1cccc(-n3nncc3CN3CCCC3)c1)=N2 [Example 137, 8-(Isobutyl-methyl-amino)-4-oxo-2-[3-(5-pyrrolidin-1-ylmethyl-[1,2,3]triazol-1-yl)-phenyl]-4,5-dihydro-3H-benzo[b][1,4]diazepine-7-carbonitrile]
